Reference: ChEMBL document CHEMBL1157711, “Recent advances in the discovery of competitive protein tyrosine phosphatase 1B inhibitors for the treatment of diabetes, obesity, and cancer” (J Med Chem, 2010)

Key:
[1] = Selectivity ratio of Ki for TCPTP to Ki for PTP1B
[2] = Permeability across human Caco-2 cell membrane; assay type: ADME, cell-based; conditions: read-out: permeability
[3] = molecular target: T1, Tyrosine-protein phosphatase non-receptor type 1 (Homo sapiens, UniProt P18031); assay: Inhibition of PTP1B
T1 sequence (P18031 whole entry): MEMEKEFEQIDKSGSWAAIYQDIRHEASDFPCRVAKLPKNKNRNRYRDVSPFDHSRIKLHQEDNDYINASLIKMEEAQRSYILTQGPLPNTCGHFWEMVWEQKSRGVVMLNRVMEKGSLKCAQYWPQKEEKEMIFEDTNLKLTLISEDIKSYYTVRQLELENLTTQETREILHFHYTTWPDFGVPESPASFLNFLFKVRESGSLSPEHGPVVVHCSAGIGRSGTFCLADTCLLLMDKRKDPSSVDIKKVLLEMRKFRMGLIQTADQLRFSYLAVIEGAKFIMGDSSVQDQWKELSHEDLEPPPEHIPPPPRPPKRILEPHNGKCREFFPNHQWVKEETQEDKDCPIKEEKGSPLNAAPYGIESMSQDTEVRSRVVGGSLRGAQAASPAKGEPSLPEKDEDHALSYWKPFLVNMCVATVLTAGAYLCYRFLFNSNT

[4] = molecular target: T2, Tyrosine-protein phosphatase non-receptor type 2 (Homo sapiens, UniProt P17706); assay: Inhibition of TCPTP
T2 sequence (P17706 whole entry): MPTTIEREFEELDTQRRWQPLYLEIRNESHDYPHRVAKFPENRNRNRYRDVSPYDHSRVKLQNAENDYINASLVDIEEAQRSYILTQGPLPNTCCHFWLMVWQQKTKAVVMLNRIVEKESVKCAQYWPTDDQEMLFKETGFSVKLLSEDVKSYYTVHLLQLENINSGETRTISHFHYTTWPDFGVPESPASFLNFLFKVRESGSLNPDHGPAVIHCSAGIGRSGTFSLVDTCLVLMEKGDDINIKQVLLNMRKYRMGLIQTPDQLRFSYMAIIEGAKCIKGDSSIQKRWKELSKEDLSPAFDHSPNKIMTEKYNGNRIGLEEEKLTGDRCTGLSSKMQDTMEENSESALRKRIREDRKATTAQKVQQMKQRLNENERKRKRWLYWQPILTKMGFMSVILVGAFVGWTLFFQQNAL

[5] = molecular target: Receptor-type tyrosine-protein phosphatase beta (Homo sapiens, UniProt P23467); assay: Inhibition of human protein-tyrosine phosphatase beta
[6] = Selectivity ratio of IC50 for TCPTP to IC50 for PTP1B
[7] = molecular target: T1, Tyrosine-protein phosphatase non-receptor type 1; assay: Inhibition of PTP1B by competitive inhibition assay
[8] = tested on: C2C12; assay: Augmentation of insulin-stimulated 2-deoxy-D-glucose uptake in mouse C2C12 cells at 100 uM; assay type: functional

Chain of Receptor-type tyrosine-protein phosphatase beta (P23467 whole entry): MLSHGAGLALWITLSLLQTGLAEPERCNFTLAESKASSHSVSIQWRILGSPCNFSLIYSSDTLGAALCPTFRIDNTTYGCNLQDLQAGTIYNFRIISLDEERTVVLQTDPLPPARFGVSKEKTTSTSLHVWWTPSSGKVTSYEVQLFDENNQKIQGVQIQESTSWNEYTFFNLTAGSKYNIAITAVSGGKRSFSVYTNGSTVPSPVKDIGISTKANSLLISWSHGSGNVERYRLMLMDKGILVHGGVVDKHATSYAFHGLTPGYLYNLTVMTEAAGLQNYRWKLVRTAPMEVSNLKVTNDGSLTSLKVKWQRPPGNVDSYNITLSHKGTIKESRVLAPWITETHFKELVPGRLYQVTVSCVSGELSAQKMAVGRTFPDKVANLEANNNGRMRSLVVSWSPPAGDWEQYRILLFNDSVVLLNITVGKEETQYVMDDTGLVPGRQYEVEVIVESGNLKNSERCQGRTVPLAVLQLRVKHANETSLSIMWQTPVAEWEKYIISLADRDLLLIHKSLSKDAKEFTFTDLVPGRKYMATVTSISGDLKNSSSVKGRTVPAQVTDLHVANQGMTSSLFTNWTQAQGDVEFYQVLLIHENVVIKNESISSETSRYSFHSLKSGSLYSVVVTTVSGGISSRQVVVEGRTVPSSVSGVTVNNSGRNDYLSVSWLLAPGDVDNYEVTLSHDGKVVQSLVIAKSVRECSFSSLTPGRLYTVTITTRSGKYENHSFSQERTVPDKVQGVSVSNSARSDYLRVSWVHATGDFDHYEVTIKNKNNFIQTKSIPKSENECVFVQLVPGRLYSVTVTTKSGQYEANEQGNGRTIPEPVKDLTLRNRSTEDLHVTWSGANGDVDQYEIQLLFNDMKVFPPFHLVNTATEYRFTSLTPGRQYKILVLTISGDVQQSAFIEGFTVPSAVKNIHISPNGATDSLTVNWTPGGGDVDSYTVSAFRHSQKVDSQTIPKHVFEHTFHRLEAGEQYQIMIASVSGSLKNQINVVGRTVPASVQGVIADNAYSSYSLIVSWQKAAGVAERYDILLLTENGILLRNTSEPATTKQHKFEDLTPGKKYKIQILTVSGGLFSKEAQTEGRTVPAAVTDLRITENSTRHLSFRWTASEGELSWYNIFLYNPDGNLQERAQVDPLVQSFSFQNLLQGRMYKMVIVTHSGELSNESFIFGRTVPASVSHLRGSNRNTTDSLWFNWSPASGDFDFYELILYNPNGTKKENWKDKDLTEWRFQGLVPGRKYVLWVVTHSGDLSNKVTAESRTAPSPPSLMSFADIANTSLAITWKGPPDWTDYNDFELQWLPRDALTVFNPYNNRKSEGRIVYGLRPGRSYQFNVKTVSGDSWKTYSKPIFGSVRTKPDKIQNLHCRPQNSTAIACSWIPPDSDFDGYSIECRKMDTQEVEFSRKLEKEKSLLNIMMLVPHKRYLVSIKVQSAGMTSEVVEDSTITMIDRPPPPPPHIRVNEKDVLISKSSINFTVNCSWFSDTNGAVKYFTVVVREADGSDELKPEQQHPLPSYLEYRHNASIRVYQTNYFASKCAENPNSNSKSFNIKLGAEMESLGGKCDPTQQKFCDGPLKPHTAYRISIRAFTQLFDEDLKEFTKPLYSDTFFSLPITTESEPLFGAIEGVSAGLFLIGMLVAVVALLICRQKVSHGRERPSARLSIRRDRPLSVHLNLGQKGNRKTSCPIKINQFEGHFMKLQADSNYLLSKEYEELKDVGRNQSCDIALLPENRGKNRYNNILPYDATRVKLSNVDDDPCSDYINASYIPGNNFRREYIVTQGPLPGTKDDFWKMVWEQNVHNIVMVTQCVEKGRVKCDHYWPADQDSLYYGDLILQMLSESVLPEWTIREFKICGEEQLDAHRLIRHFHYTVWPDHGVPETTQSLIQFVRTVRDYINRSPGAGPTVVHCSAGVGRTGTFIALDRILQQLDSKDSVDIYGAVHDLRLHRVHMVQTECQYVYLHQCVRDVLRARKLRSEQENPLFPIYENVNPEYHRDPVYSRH

Which Ratio Ki [1] does the source give for `COC(=O)c1c(O)cccc1OCCCCNC(=O)[C@H](Cc1ccc(OCC(=O)O)c(O)c1)NC(C)=O` here?
The Ratio Ki was 20.

And the Papp [2]?
The Papp was over 10 ×10⁻⁶ cm/s.

Which IC50 [3] does the source give for `CS(=O)(=O)OC1C(Cl)CCCC1Cc1ccc(N2CC(=O)CS2(=O)=O)c(O)c1` (centres undefined) here?
The IC50 was 12.6 nM.

For `Cc1cc(C[C@H](NS(=O)(=O)c2ccccc2)c2nc3ccccc3[nH]2)ccc1[C@@H]1CC(=O)NS1(=O)=O`, which IC50 [4] is on record?
The IC50 was 25 nM.

For `CCc1csc([C@H](Cc2ccc(NS(=O)(=O)O)cc2)NC(=O)[C@H](CC(C)C)C(=O)OC)n1`, which IC50 [5] is on record?
Its IC50 is 0.3 nM.

What about the IC50 [3] of the same compound?
Its IC50 is 70 nM.

Which IC50 [4] does the source give for `O=C1C[C@@H](c2ccc(C[C@H](Nc3nc4ccccc4s3)c3nc4ccccc4[nH]3)cc2F)S(=O)(=O)N1` here?
The IC50 was 250 nM.

For `Cc1sc(-c2cccc(NC3CCN(S(=O)(=O)Cc4ccccc4)CC3)c2)cc1C1CC(=O)NS1(=O)=O` (centres undefined), which Ki [3] is on record?
The Ki was 4300 nM.

For `N#Cc1ccc2cc(Br)c(C(F)(F)P(=O)(O)O)cc2c1`, which IC50 [4] is on record?
Its IC50 is 120 nM.

With `Cc1nc(-c2ccc(Cl)cc2)sc1CCc1cccc(C(O)(C(=O)O)C(F)(F)F)c1` (centres undefined) as the compound, how does the IC50 [3] read?
Its IC50 is 3200 nM.

For `COc1ccc2cc(O)c(N3CC(=O)NS3(=O)=O)cc2c1`, which IC50 [3] is on record?
The IC50 was under 30 nM.

With `O=S(=O)(O)C(F)(F)c1cccc(-c2ccc(-c3ccccc3)cc2)c1` as the compound, how does the IC50 [3] read?
The IC50 was 8000 nM.

Which IC50 [3] does the source give for `CCC(CC)c1ccc(N(Cc2cccc(-c3ccc(COc4ccc(C[C@H](NC(C)=O)C(=O)O)cc4)cc3)c2)C(C)C)cc1` here?
The IC50 was 16 nM.

Which Ratio IC50 [6] does the source give for `COc1cc(/C=C2\SC(=S)N(c3cccc(Cl)c3)C2=O)cc([N+](=O)[O-])c1O` here?
Its Ratio IC50 is 1.3.

And the Ki [7]?
Its Ki is 1800 nM.

With `CCc1cc(C[C@H](NC(C)=O)C(=O)NCCCCOc2cccc(O)c2C(=O)OC)ccc1N(C(=O)C(=O)O)c1ccccc1C(=O)O` as the compound, how does the Ki [4] read?
The Ki was 65 nM.

With `CNC(=O)[C@@H]1Cc2ccc(NS(=O)(=O)O)cc2CN1C(=O)CCc1cccc(NS(=O)(=O)O)c1` as the compound, how does the Ratio IC50 [6] read?
Its Ratio IC50 is 1.9.

Which results are given for `O=C(O)C(=O)Nc1sc2c(c1C(=O)O)CCN[C@H]2CNC(=O)c1cc2cc(F)ccc2[nH]1`?
Activity [8]: 70%; Papp [2]: < 1 ×10⁻⁶ cm/s

Which IC50 [3] does the source give for `O=C1CN(c2c(O)cc(CC3CCCCC3)cc2F)S(=O)(=O)C1` here?
Its IC50 is 14 nM.

With `Cc1cc(CC(NS(=O)(=O)c2cccc(F)c2)C2=N[C@H](CCOc3ccccc3S(C)(=O)=O)CN2)ccc1C1CC(=O)NS1(=O)=O` (some centres undefined) as the compound, how does the Ratio IC50 [6] read?
The Ratio IC50 was 1.

What about the IC50 [4] of the same compound?
Its IC50 is 25 nM.

What about the IC50 [3] of the same compound?
Its IC50 is 23 nM.

With `COC(=O)c1c(O)cccc1OC/C=C/c1cccc(-c2onc(C(=O)O)c2N)c1` as the compound, how does the IC50 [4] read?
The IC50 was over 30000 nM.

Which Ratio IC50 [6] does the source give for `CN(C)S(=O)(=O)c1ccc(CN(Cc2ccc(C(F)(F)P(=O)(O)O)c(Br)c2)S(=O)(=O)c2ccc(OCC(=O)O)cc2)cc1` here?
The Ratio IC50 was 1.

What about the IC50 [4] of the same compound?
The IC50 was 28 nM.

With `CN(CCCCCl)P(=O)(OCc1ccc([N+](=O)[O-])o1)C(F)(F)c1ccc(CC(=O)N[C@@H](CC(=O)O)C(=O)N[C@@H](Cc2ccc(C(F)(F)P(=O)(OCc3ccc([N+](=O)[O-])o3)N(C)CCCCCl)cc2)C(=O)ON)cc1` (some centres undefined) as the compound, how does the IC50 [3] read?
The IC50 was over 20000 nM.

With `COC(=O)c1c(O)cccc1OCCCCNC(=O)[C@H](Cc1ccc(OC(C(=O)O)C(=O)NC2CC2)cc1)NC(=O)OC(C)(C)C` (some centres undefined) as the compound, how does the Ratio Ki [1] read?
Its Ratio Ki is over 23.

And the Ki [4]?
Its Ki is over 200000 nM.

And the Ki [3]?
The Ki was 8400 nM.

Which Ki [4] does the source give for `NC(=O)[C@H](Cc1ccc(C(F)(F)P(=O)(O)O)cc1)NC(=O)[C@H](CC(=O)O)NC(=O)Cc1ccc(C(F)(F)P(=O)(O)O)cc1` here?
Its Ki is 26 nM.

With `Cc1ccccc1S(=O)(=O)N(Cc1ccc(C(=O)C(F)(F)P(=O)(O)O)cc1)Cc1ccc(C(=O)C(F)(F)P(=O)(O)O)cc1` as the compound, how does the IC50 [3] read?
The IC50 was 600 nM.

With `O=S(=O)(Nc1ccc(Oc2ccc(Oc3ccc(NS(=O)(=O)C(F)(F)F)cc3)cc2)cc1)C(F)(F)F` as the compound, how does the IC50 [3] read?
The IC50 was 2500 nM.

With `Cc1cc(C[C@H](NS(=O)(=O)c2ccccc2)c2nc3ccccc3[nH]2)ccc1N1CC(=O)NS1(=O)=O` as the compound, how does the IC50 [4] read?
Its IC50 is 150 nM.
